Data: PMC8958504 (Journal of Medicinal Chemistry, 2022)

Columns and labels:
HO-1 = assay: Western blotting of HO-1 in hippocampal slices exposed to OA; format: cell-based, mouse; settings: hippocampal slices treated with OA
From the text: (§1) As iNOS can be produced through the NF-κB (nuclear factor kappa-light-chain-enhancer of activated B cells) pathway, we analyzed the levels of p65, one of the components that form the NF-κB transcription factor family.[82] […] We also measured HO-1, an inducible enzyme transcribed by NRF2, known for its anti-inflammatory, antioxidant, and neuroprotective effects. […] NRF2 and NF-κB signaling pathways cooperate to maintain the physiological homeostasis of cellular redox status and to regulate the cellular response to stress and inflammation.[19],[83] […] This last mechanism could be related to our resveratrol-based MTDL 4e.
(§2) After acute treatment, the hippocampal slices were lysed in a cold AKT lysis buffer (137 mM NaCl, 20 mM NaF, 10% glycerol, 20 mM Tris–HCl, 1% Nonidet P-40, 1 μg/mL leupeptin, 1 mM phenylmethylsulfonylfluoride, 1 mM sodium pyrophosphate, and 1 mM Na3VO4, pH 7.5). The total protein in each sample was quantified using the Pierce BCA protein kit (Thermo Fisher). 20 μg of protein was resolved by sodium dodecyl sulfate polyacrylamide gel electrophoresis (SDS-PAGE) and transferred to Immobilon-P PVDF membranes (Millipore Corp.). […] The membranes were washed, incubated with ECL WB Kit (GE Healthcare, Amersham), and exposed using a ChemiDoc MP system (Bio-Rad Laboratories) for the visualization of the specific bands, which were then analyzed with Fiji software.

[1] = system: NRF2-ARE signaling pathway; assay: cells; format: cell-based; settings: concentration required to double luciferase activity, AREc32 cells, 24 h
in vitro = in vitro ADME
QR2 = biological target: T1, QR2 (Mesocricetus auratus, UniProt A0ABM2YAB8); assay: biochemical
T1 sequence (A0ABM2YAB8 1-231): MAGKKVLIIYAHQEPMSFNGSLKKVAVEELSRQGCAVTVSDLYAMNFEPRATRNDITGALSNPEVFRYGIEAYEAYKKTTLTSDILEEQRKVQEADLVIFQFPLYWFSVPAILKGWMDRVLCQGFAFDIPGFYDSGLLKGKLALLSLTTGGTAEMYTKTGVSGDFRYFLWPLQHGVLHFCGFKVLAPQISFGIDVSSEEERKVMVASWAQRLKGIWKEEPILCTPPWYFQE
Method: The QR2 experiments were performed in membrane homogenates of hamster brains (https://www.eurofins.fr, catalog ref. 0088). […] First, radioligand displacement was measured at a fixed compound concentration (10 μM) in each receptor.

hMAO-A = biological target: T2, hMAO-A (Homo sapiens, UniProt P21397); assay: biochemical; settings: read-out: hMAO-A (IC50); recombinant hMAO-A, p-tyramine substrate
T2 sequence (P21397 1-527): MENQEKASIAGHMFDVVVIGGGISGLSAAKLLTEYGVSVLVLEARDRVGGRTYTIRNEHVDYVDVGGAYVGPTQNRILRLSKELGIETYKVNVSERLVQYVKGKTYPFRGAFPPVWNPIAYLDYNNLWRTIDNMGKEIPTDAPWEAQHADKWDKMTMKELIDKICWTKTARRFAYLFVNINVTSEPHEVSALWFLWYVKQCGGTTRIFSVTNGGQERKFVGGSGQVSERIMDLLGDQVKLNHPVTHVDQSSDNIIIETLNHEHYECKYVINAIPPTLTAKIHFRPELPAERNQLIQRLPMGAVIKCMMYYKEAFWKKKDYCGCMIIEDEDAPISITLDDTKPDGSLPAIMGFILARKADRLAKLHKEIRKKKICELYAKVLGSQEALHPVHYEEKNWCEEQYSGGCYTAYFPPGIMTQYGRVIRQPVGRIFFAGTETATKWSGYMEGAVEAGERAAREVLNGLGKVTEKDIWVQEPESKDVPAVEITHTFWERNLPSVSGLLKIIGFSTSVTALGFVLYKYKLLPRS
Method: (§3) The hMAO-A/B inhibition of all compounds was determined using the Amplex Red MAO assay kit.
(§4) Assays were performed following the general procedure previously described.[98] […] The specific fluorescence emission was calculated after subtracting the background activity, which was determined from wells containing all components except the hMAO isoforms, which were replaced with PBS.

hMAO-B = biological target: T3, hMAO-B (Homo sapiens, UniProt P27338); assay: biochemical; settings: read-out: hMAO-B (IC50); recombinant hMAO-B, p-tyramine substrate
T3 sequence (P27338 1-520): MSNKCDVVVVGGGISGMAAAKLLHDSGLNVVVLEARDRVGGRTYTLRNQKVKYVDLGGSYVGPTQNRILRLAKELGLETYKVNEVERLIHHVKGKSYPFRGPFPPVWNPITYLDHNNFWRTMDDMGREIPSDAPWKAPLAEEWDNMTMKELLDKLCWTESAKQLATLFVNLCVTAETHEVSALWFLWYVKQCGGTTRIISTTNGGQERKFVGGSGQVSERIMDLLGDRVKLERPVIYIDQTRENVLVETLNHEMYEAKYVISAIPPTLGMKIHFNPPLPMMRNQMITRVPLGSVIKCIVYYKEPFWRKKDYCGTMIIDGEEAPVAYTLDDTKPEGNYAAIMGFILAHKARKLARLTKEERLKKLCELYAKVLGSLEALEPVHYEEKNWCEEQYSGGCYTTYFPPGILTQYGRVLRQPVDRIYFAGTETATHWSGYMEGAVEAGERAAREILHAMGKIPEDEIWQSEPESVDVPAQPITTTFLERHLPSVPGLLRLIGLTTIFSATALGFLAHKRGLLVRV
Method: as §3, §4

p65 = assay: Western blotting of p65 in hippocampal slices exposed to OA; format: cell-based, mouse; settings: hippocampal slices treated with OA
From the text: as §1, §2

Compound: C#CCn1nc(/C=C/c2ccc(OC)cc2)oc1=O [4e, 5-[(E)-2-(4-Methoxyphenyl)ethenyl]-3-(prop-2-yn-1-yl)-1,3,4-oxadiazol-2(3H)-one]
- HO-1 level (HO-1): further increased
- NRF2 (CD, μM) [1]: 9.83 ± 0.6 µM
- Papp at 240 min, 100 μg mL^–1 (in vitro; PAMPA, pH 7.4, class from PAMPA-BBB Pe, read-out: CNS-permeability prediction): > 40 nm/s
- PAMPA-BBB (Pe, 10^–6 cm s^–1) (in vitro; porcine brain lipid, PBS/EtOH (70:30), 240 min, 25 °C): 8.0 ± 0.5 10^–6 cm s^–1
- IC50 (QR2): 0.57 ± 0.04 µM
- IC50 (hMAO-A): > 50 µM
- IC50 (hMAO-B): 8.05 ± 1.82 µM
- p65 level (p65): slightly reduced p65 below to the basal value
